Holding throughout (format): in vivo
In one experiment the test system is Male C57B1/6 mice. The experiment in a line: Food intake and body weight of male C57Bl/6 mice under restricted feeding (Example 3). The note with it: for Post-treatment Food Intake (5 Hour): 5 hour meal; for Change in Body weight % / Change in Body weight (grams ± SEM) / Post-treatment Body weight: restricted feeding. The method, then: Animals. […] Food was withheld for the remainder of each day. Because of the restricted feeding time, the mice eat less than under ad libitum food availability. Therefore, reduction of food intake in this model requires a drug effect sufficient to overcome the hunger stimulus provided by subnormal daily food intake. Drug Administration. Groups of 10 mice each (individually weighed and marked, divided into 5/cage and trained and monitored as above; were dosed once per day with Compound BI (100 mg/kg), rosiglitazone (3 mg/kg), both drugs, or vehicle by oral gavage at 8 AM for four consecutive days. Comparator groups receiving appetite modulators not suitable for oral dosing (PYY and cerulenin) received intraperitoneal injections at 8 AM for four consecutive days. […] [table]

Experiment [1] relates to db/db mice. The experiment can be described thus: Serum glucose in db/db mice after two weeks (Example 4). The method, then: • 8. Vehicle (1% hydroxypropylmethylcellulose) • 9. Compound BI 100 mg/kg • 10. Rosiglitazone (RSG) 3 mg/kg • 11. Compound BI 100 mg/kg+RSG 3 mg/kg • 12. Compound CF 100 mg/kg • 13. Compound CF 100 mg/kg+RSG 3 mg/kg • 14. Compound CT 100 mg/kg+RSG 3 mg/kg • 15. […]
After two weeks, blood samples were collected from the retro-orbital sinus and processed for serum chemistry measurements.

The subject of experiment [2] is db/db mice. The experiment in a line: Serum glucose in db/db mice, combinations with rosiglitazone or pioglitazone, 4 weeks (Example 5). The settings on record: 4 weeks oral once per day. On the procedure: Male db/db mice have a defect in the receptor for the appetite-regulating protein leptin and consequently develop hyperphagia, obesity, insulin resistance, hyperglycemia, hypertriglyceridemia. Male db/db mice are an accepted animal model for Type II diabetes. The effect of a range of single daily doses of orally administered Compound BI was assessed in this model, and the efficacy of rosiglitazone alone and in combination with Compound BI was also examined.
Male C57BL/Ksola db/db mice (“db/db mice”) were obtained from Harlan (Indianapolis, Ind.) and allowed to acclimate for a minimum of one week.
Body weights and blood glucose levels were measured and animals were sorted groups of 6-7 mice with equivalent mean body weights in each group. […].
• 12. Vehicle • 13. Compound BI 100 mg/kg/day • 14. Rosiglitazone 3 mg/kg • 15. Rosiglitazone 3 mg/kg+Compound BI 100 mg/kg • 16. Pioglitazone 30 mg/kg • 17. Pioglitazone 30 mg/kg+Compound BI 100 mg/kg • 18. Pioglitazone 100 mg/kg • 19. Pioglitazone 100 mg/kg+Compound BI 100 mg/kg
Drug preparation: Compound BI was suspended in a vehicle comprising 1% aqueous hydroxypropylmethylcellulose, using a tissue homogenizer to minimize particle size and maximize uniformity of the suspension. Pioglitazone and rosiglitazone were suspended in the same vehicle after pulverization of commercial tablets of each of these drugs. Drug concentrations in the dosing suspension for each treatment group were adjusted according to body weights so that a constant volume of 0.4 ml provided appropropriate drug doses in all groups.
Drug Administration: Drugs were administered orally by gavage once per day for 28 days.
Blood sampling: For serum chemistry analysis, nonfasting blood samples (200 microliters) were obtained via the retro-orbital sinus and collected in serum separator tubes at 11 AM on day 28 after initiation of drug administration.

Experiment [3] concerns Uncoupling Protein 1 (UCP1). The experiment can be described thus: UCP1 content of white adipose tissue by Western blot in db/db mice (Example 6). The settings on record: for WAT UCP1 (relative light units): db/db mice epididymal fat pads, two weeks daily oral. An excerpt: Uncoupling Protein 1 (UCP1) is a protein that can dissipate metabolic energy when expressed in the mitochondrial membrane. It is present in brown adipose tissue (BAT; the brown color is due to a higher density of mitochondria than in white adipose tissue) in small mammals where its main function is to generate heat, but it can also serve to accelerate combustion of fatty acids. This latter function is especially important when UCP1 is expressed in tissues other than brown fat, since depots of brown fat are limited in humans Expression of UCP1 in white fat alters the functional phenotype of the tissue from fat storage to fat combustion. Transgenic mice expressing UCP1 in white adipose tissue are resistant to obesity and diabetes induced by a high fat diet. Pharmacological induction of UCP1 expression in white adipose tissue is therefore an attractive strategy for promoting weight reduction and resistance to body weight gain. […]
Treatment cohorts were given daily oral doses of vehicle, Compound BI (100 mg/kg/day), rosiglitazone (RSG; 3 mg/kg/day) or a combination of the two drugs for 2 weeks. […] Blood samples were also collected prior to sacrifice via the retro-orbital plexus, and processed and analyzed for serum glucose (AniLytics, Inc.; Gaithersburg Md.). […]
The membrane was washed 3 times in TBST at room temperature, and then incubated with a primary anti UCPI antibody (Chemicon Rabbit anti-mouse UCP-1, catalogue #AB3036) for 1 hr at RT (room temperature) in a sealed bag. […] The membrane was washed 6×7 min in TBST at room temperature, and then incubated with ECL (enhanced chemiluminescence) reagent (Amersham) for 1 min, and the relative amounts of UCP1 in tissue samples were quantified by densitometry of the images on X-ray film resulting from exposure to light from the chemiluminescence reaction, and expressed as relative light units (RLU).
(In general: Immunoblotting shows a protein as a band on a membrane.)

[4] abbreviates: Compound BI 100 mg/kg oral once per day.
Where [5] appears, read: Rosiglitazone 3 mg/kg oral once per day.

This is an account of results in patent US8338480B2, “Combination treatment of metabolic disorders” (Wellstat Therapeutics Corporation, priority 2006, dated 2012).

Structures can show the parent of a compound that is named as a salt.

For `Cc1cccc(C)c1COc1cccc(C(=O)CCC(=O)O)c1` [Compound BI, 4-(3-(2,6-Dimethylbenzyloxy)phenyl)-4-oxobutyric acid], in the experiment on Male C57B1/6 mice (setting [4]), the “Post-treatment Food Intake (5 Hour)” value turned out to be 2.00 ± 0.18 grams, the “Change in Body weight %” value is reported as −1.90 ± 0.73%, the “Change in Body weight (grams ± SEM)” value was −0.40 ± 0.15 grams and the “Post-treatment Body weight” value stood at 20.57 ± 0.51 grams. Moreover, the “Glucose ± SD” value in the experiment with db/db mice [1] (compound alone 100 mg/kg) was found to be 206 ± 44 mg/dL. Also, the “Serum Glucose (mg/dL) Mean ± SD” value in the experiment with db/db mice [2] (Compound BI 100 mg/kg) is 376 ± 151 mg/dL. In addition, the “WAT UCP1 (relative light units)” value in experiment [3] (Cpd. BI 100 mg/kg) is 322 ± 94 relative light units. In addition, the “UCP1 content of white adipose tissue (in words)” value in experiment [3] (db/db mice, 2 weeks, Compound BI 100 mg/kg/day, RSG 3 mg/kg/day, alone or combined) was “slightly the UCP1 content of elevated white adipose tissue”.

On to `CN(CCOc1ccc(CC2SC(=O)NC2=O)cc1)c1ccccn1` (stereo not drawn) [RSG, rosiglitazone maleate, reference compound], for which, in the experiment with Male C57B1/6 mice (setting [5]), the “Post-treatment Food Intake (5 Hour)” value was 2.21 ± 0.15 grams, the “Change in Body weight %” value was −0.55 ± 0.44%, the “Change in Body weight (grams ± SEM)” value was −0.12 ± 0.09 grams and the “Post-treatment Body weight” value is recorded as 20.76 ± 0.39 grams. Also, the “Glucose ± SD” value in the experiment with db/db mice [1] (RSG 3 mg/kg alone) turned out to be 258 ± 74 mg/dL. For the same compound, the “Serum Glucose (mg/dL) Mean ± SD” value in the experiment with db/db mice [2] (RSG 3 mg/kg) worked out at 432 ± 138 mg/dL. In experiment [3] (RSG 3 mg/kg), the “WAT UCP1 (relative light units)” value is on record as 2067 ± 717 relative light units.
